A short description of this experiment: In vitro inhibition of thrombin-induced human gel-filtered platelet aggregation.

A value given as a limit tells only on which side of the number the result lay.

For `O=C(NCCc1nnn[nH]1)C1CCCN(C(=O)CCC2CCNCC2)C1` (stereo not given) [1-(3-Piperidin-4-yl-propionyl)-piperidine-3-carboxylic acid [2-(1H-tetrazol-5-yl)-ethyl]-amide], the IC50 came out at 40 µM.
Molecule `O=C(O)C(O)CNC(=O)[C@@H]1CCCN(C(=O)CCC2CCNCC2)C1` (stereo partly drawn) [2-Hydroxy-3-{[(R)-1-(3-piperidin-4-yl-propionyl)-piperidine-3-carbonyl]-amino}-propionic acid] displayed an IC50 of 0.8 µM.
Then `CC(CNC(=O)C1CCCN(C(=O)CCC2CCNCC2)C1)C(=O)O` (stereo not given) [2-Methyl-3-{[1-(3-piperidin-4-yl-propionyl)-piperidine-3-carbonyl]-amino}-propionic acid], with over 10 µM; and `COC(=O)C(CC(=O)O)NC(=O)C1CCCN(C(=O)CCC2CCNCC2)C1` (stereo not given) [2-{[1-(3-Piperidin-4-yl-propionyl)-piperidine-3-carbonyl]-amino}-succinic acid 1-methyl ester], with 1 µM; and `O=C(O)CCNC(=O)C1CCCN(C(=O)OCC2CCNCC2)C1` (stereo not given) [3-(2-Carboxy-ethylcarbamoyl)-piperidine-1-carboxylic acid piperidin-4-ylmethyl ester], with 5 µM.
Then `CN(CCC(=O)O)C(=O)C1CCCN(C(=O)CCC2CCNCC2)C1` (stereo not given) [3-{Methyl-[1-(3-piperidin-4-yl-propionyl)-piperidine-3-carbonyl]-amino}-propionic acid], with 28 µM.
Then `O=C(O)C1CCCC(NC(=O)C2CCCN(C(=O)CCC3CCNCC3)C2)C1` (stereo not given) [3-{[1-(3-Piperidin-4-yl-propionyl)-piperidine-3-carbonyl]-amino}-cyclohexanecarboxylic acid], with over 50 µM; and `O=C(O)C[C@H](NC(=O)[C@@H]1CCCN(C(=O)CCC2CCNCC2)C1)c1ccc2c(c1)OCO2` [(S)-3-Benzo[1,3]dioxol-5-yl-3-{[(R)-1-(3-piperidin-4-yl-propionyl)-piperidine-3-carbonyl]-amino}-propionic acid], with 0.02 µM.
Molecule `O=C(O)C[C@H](NC(=O)[C@@H]1CCCN(C(=O)CCC2CCNCC2)C1)c1cccs1` [(S)-3-{[(R)-1-(3-Piperidin-4-yl-propionyl)-piperidine-3-carbonyl]-amino}-3-thiophen-2-yl-propionic acid] came in with an IC50 of 0.09 µM.
In the case of `O=C(O)C[C@@H](C#Cc1ccccc1)NC(=O)[C@@H]1CCCN(C(=O)CCC2CCNCC2)C1` [(S)-5-Phenyl-3-{[(R)-1-(3-piperidin-4-yl-propionyl)-piperidine-3-carbonyl]-amino}-pent-4-ynoic acid], half-maximal inhibition (IC50) required 0.08 µM.

Broadly, the IC50 is the concentration at which inhibition is half-maximal.

The values above are taken from BindingDB's records for doi:10.1016/0960-894X(96)00438-6 (1996).
